Details: Gas, double Helmholtz acoustic resonator

[C-]#[O+] [carbon monoxide]
Details	kinematic viscosity [m2/s]	speed of sound [m/s]
225 K, 250.04 kPa	3.74e-06	305.59
225 K, 371.9 kPa	2.5e-06	305.42
225 K, 499.99 kPa	1.86e-06	305.4
225 K, 560.56 kPa	1.68e-06	305.34
225 K, 743.07 kPa	1.25e-06	305.24
225 K, 750 kPa	1.23e-06	305.26
225 K, 934.61 kPa	1e-06	305.14
225 K, 1000 kPa	9.4e-07	305.15
225 K, 1141.5 kPa	8.17e-07	305.06
225 K, 1250 kPa	7.36e-07	305.04
225 K, 1345.6 kPa	6.95e-07	304.99
225 K, 1500 kPa	6.19e-07	304.99
225 K, 1581.5 kPa	5.88e-07	304.94
225 K, 1750 kPa	5.32e-07	304.95
225 K, 1787.1 kPa	5.2e-07	304.91
225 K, 2000 kPa	4.66e-07	304.94
225 K, 2016.1 kPa	4.63e-07	304.91
225 K, 2264 kPa	4.14e-07	304.94
225 K, 2454.7 kPa	3.79e-07	304.96
250 K, 221.65 kPa	5.37e-06	322.56
250 K, 401.55 kPa	2.88e-06	322.4
250 K, 587.83 kPa	1.95e-06	322.43
250 K, 791.25 kPa	1.45e-06	322.51
250 K, 982.55 kPa	1.16e-06	322.58
250 K, 1169.1 kPa	9.78e-07	322.67
250 K, 1392.3 kPa	8.19e-07	322.79
250 K, 1587.8 kPa	7.19e-07	322.93
250 K, 1808.2 kPa	6.28e-07	323.08
250 K, 2050.1 kPa	5.56e-07	323.27
250 K, 2241.5 kPa	5.08e-07	323.44
275 K, 250.64 kPa	5.04e-06	338.34
275 K, 286.53 kPa	4.39e-06	338.19
275 K, 465.9 kPa	2.83e-06	338.32
275 K, 500.41 kPa	2.7e-06	338.48
275 K, 652.16 kPa	2.07e-06	338.54
275 K, 750 kPa	1.84e-06	338.76
275 K, 832.04 kPa	1.63e-06	338.75
275 K, 1000 kPa	1.37e-06	338.99
275 K, 1045.4 kPa	1.3e-06	338.99
275 K, 1250 kPa	1.11e-06	339.26
275 K, 1252.2 kPa	1.09e-06	339.22
275 K, 1443.1 kPa	9.45e-07	339.46
275 K, 1500 kPa	9.2e-07	339.57
275 K, 1675 kPa	8.12e-07	339.74
275 K, 1750 kPa	7.89e-07	339.89
275 K, 1882.7 kPa	7.23e-07	340.02
275 K, 2000 kPa	6.96e-07	340.23
275 K, 2150.8 kPa	6.33e-07	340.38
275 K, 2364.7 kPa	5.79e-07	340.69
300 K, 252.56 kPa	6.71e-06	353.44
300 K, 501.19 kPa	3.25e-06	353.74
300 K, 709.53 kPa	2.28e-06	354
300 K, 1000 kPa	1.64e-06	354.52
300 K, 1178.1 kPa	1.39e-06	354.78
300 K, 1250 kPa	1.31e-06	354.91
300 K, 1374 kPa	1.2e-06	355.09
300 K, 1481.5 kPa	1.12e-06	355.27
300 K, 1500 kPa	1.1e-06	355.32
300 K, 1602.1 kPa	1.03e-06	355.46
300 K, 1730.3 kPa	9.55e-07	355.67
300 K, 1750 kPa	9.47e-07	355.74
300 K, 1868 kPa	8.89e-07	355.91
300 K, 2000 kPa	8.32e-07	356.15
300 K, 2005.3 kPa	8.27e-07	356.15
325 K, 303.08 kPa	5.93e-06	367.79
325 K, 515.56 kPa	3.49e-06	368.11
325 K, 732.01 kPa	2.49e-06	368.52
325 K, 943.23 kPa	1.94e-06	368.91
325 K, 1169.7 kPa	1.57e-06	369.33
325 K, 1401.2 kPa	1.31e-06	369.77
325 K, 1633.9 kPa	1.12e-06	370.22
325 K, 1908.7 kPa	9.62e-07	370.77
325 K, 2129.6 kPa	8.63e-07	371.22
325 K, 2413.1 kPa	7.66e-07	371.82
350 K, 342.4 kPa	6.04e-06	381.63
350 K, 544.1 kPa	3.84e-06	382.06
350 K, 775.52 kPa	2.69e-06	382.52
350 K, 1007.1 kPa	2.06e-06	382.99
350 K, 1245.1 kPa	1.68e-06	383.51
350 K, 1461.5 kPa	1.43e-06	383.96
350 K, 1735.1 kPa	1.21e-06	384.56
350 K, 1995.6 kPa	1.05e-06	385.14
350 K, 2208.2 kPa	9.51e-07	385.62
350 K, 2464.2 kPa	8.55e-07	386.21
375 K, 260.28 kPa	8.45e-06	394.36
375 K, 460.71 kPa	4.99e-06	394.79
375 K, 672.43 kPa	3.42e-06	395.31
375 K, 885.97 kPa	2.63e-06	395.84
375 K, 1102.9 kPa	2.13e-06	396.34
375 K, 1302.3 kPa	1.81e-06	396.82
375 K, 1537.5 kPa	1.53e-06	397.37
375 K, 1815.6 kPa	1.3e-06	398.04
375 K, 2026.2 kPa	1.16e-06	398.56
375 K, 2250.6 kPa	1.05e-06	399.12
375 K, 2518.2 kPa	9.4e-07	399.8

F[Si](F)(F)F [silicon tetrafluoride]
Details	kinematic viscosity [m2/s]	speed of sound [m/s]
215 K, 198.15 kPa	1.06e-06	136.99
215 K, 283.66 kPa	7.32e-07	135.34
215 K, 378.5 kPa	5.24e-07	133.42
215 K, 461.43 kPa	4.37e-07	131.7
215 K, 551.52 kPa	3.6e-07	129.72
215 K, 649.39 kPa	3.03e-07	127.46
215 K, 746.64 kPa	2.59e-07	125.06
230 K, 271.49 kPa	8.88e-07	141.02
230 K, 424.62 kPa	5.63e-07	138.59
230 K, 578.31 kPa	3.98e-07	136.01
230 K, 742.99 kPa	2.84e-07	133.07
230 K, 897.83 kPa	2.5e-07	130.19
230 K, 1088.3 kPa	2.9e-07	126.35
230 K, 1251 kPa	1.76e-07	122.68
245 K, 248.32 kPa	1.09e-06	146.4
245 K, 393.67 kPa	6.6e-07	144.55
245 K, 542.46 kPa	4.92e-07	142.59
245 K, 703.75 kPa	3.7e-07	140.39
245 K, 873.41 kPa	2.95e-07	138
245 K, 1034.5 kPa	2.46e-07	135.63
245 K, 1220 kPa	2.08e-07	132.78
245 K, 1434.3 kPa	1.74e-07	129.26
245 K, 1599.8 kPa	1.55e-07	126.37
245 K, 1777.8 kPa	1.4e-07	123.04
245 K, 1958.5 kPa	1.25e-07	119.34
260 K, 206.14 kPa	1.34e-06	151.46
260 K, 410.06 kPa	7.49e-07	149.46
260 K, 617.98 kPa	4.82e-07	147.22
260 K, 830.76 kPa	3.54e-07	144.88
260 K, 1047.1 kPa	2.74e-07	142.41
260 K, 1252 kPa	2.3e-07	140.01
260 K, 1498.2 kPa	1.91e-07	137.01
260 K, 1794.3 kPa	1.58e-07	133.23
260 K, 2026.6 kPa	1.39e-07	130.08
260 K, 2282.2 kPa	1.25e-07	126.45
260 K, 2541.7 kPa	1.1e-07	122.51
274.58 K, 524.86 kPa	6.36e-07	153.14
274.58 K, 642.96 kPa	5.09e-07	152.03
274.58 K, 744.26 kPa	4.24e-07	151.15
274.58 K, 845.26 kPa	3.88e-07	150.26
274.58 K, 947.16 kPa	3.48e-07	149.34
274.58 K, 1048.3 kPa	3.11e-07	148.41
274.58 K, 1150.3 kPa	2.86e-07	147.47
274.58 K, 1252.2 kPa	2.59e-07	146.53
274.58 K, 1353.8 kPa	2.42e-07	145.57
274.58 K, 1454.6 kPa	2.28e-07	144.62
274.58 K, 1556 kPa	2.09e-07	143.64
274.58 K, 1657.9 kPa	2.01e-07	142.67
274.58 K, 1764.4 kPa	1.82e-07	141.62
274.58 K, 1878.1 kPa	1.7e-07	140.5
274.58 K, 1998.5 kPa	1.64e-07	139.34
274.58 K, 2141.9 kPa	1.52e-07	137.92
274.58 K, 2244.2 kPa	1.42e-07	136.85
274.58 K, 2354.1 kPa	1.36e-07	135.74
274.58 K, 2474 kPa	1.31e-07	134.5
274.58 K, 2776.6 kPa	1.15e-07	131.33
274.58 K, 2951.3 kPa	1.08e-07	129.47
300 K, 386.04 kPa	1.14e-06	161.89
300 K, 581.57 kPa	7.42e-07	160.87
300 K, 775.29 kPa	5.2e-07	159.49
300 K, 975.51 kPa	4.04e-07	158.17
300 K, 1173.9 kPa	3.25e-07	156.88
300 K, 1443.4 kPa	2.69e-07	155.17
300 K, 1648.7 kPa	2.37e-07	153.86
300 K, 1872.1 kPa	2.11e-07	152.44
300 K, 2157.9 kPa	1.71e-07	150.6
300 K, 2526.1 kPa	1.53e-07	148.3
324.96 K, 582.54 kPa	8.84e-07	168.12
324.96 K, 731.36 kPa	6e-07	167.21
324.96 K, 1070.8 kPa	4.22e-07	165.71
324.96 K, 1257.4 kPa	3.6e-07	164.87
324.96 K, 1487.6 kPa	3.1e-07	163.84
324.96 K, 1769 kPa	2.59e-07	162.6
324.96 K, 1936.2 kPa	2.42e-07	161.88
324.96 K, 2114.4 kPa	2.11e-07	161.1
324.96 K, 2322.2 kPa	1.99e-07	160.23
324.96 K, 2541 kPa	1.84e-07	159.34

— the NIST ThermoML archive (doi:10.1016/j.jct.2007.07.002)
